Calls of active or inactive are those of the source. The calls are words filed in the database; no cut-off is given here. Starred links: 1 amine or outer side, 2 acyl side, 3 side chain; linkers in the order of their positions; H or OH if unused. Positions of bridges follow the written chain, without caps; N, C: chain ends. Non-standard residues stand in square brackets, D forms with d. Residues, ends and D or L forms follow the SMILES beside them. *: point of attachment. X2 = C[C@](CCCCCCCC=[*:3])(N[*:1])C(=O)[*:2]; X1 = C[C@@](CCCCC=[*:3])(N[*:1])C(=O)[*:2]; X3 = CC[C@H](C)CCCCC(=O)*; Dab = NCC[C@H](N)C(=O)O
Experiments:
HaCaT = experiment: Cytotoxicity against human HaCaT cells assessed as survival rate at 100 microg/ml; format: functional; conditions: read-out: Survival
[1] = Hemolytic activity at human Erythrocyte assessed as hemolysis at 100 microg/ml; format: toxicity, cell-based; conditions: erythrocytes, at 100 µg/mL, read-out: Activity
Peritoneal macrophage [2] = experiment: Cytotoxicity against mouse Peritoneal macrophage cells assessed as survival rate at 100 microg/ml; format: functional; conditions: read-out: Survival
Peritoneal macrophage [3] = experiment: Antiinflammatory activity in mouse Peritoneal macrophage cells assessed as inhibition of LPS-induced IL-6 production at 20 microg/ml incubated for 6 hrs by ELISA analysis; format: functional, cell-based; conditions: dose 20.0 µg/ml
Peritoneal macrophage [4] = experiment: Antiinflammatory activity in mouse Peritoneal macrophage cells assessed as inhibition of LPS-induced TNF-alpha production at 20 microg/ml incubated for 6 hrs by ELISA analysis; format: functional, cell-based; conditions: dose 20.0 µg/ml
Staphylococcus aureus = experiment: Antimicrobial activity against Staphylococcus aureus CMCC 26003 at 5 times MIC measured at 180 mins; format: functional, organism-based
[5] = Acute toxicity in BALB/c mouse assessed as mortality at 10 mg/kg, iv measured for 24 hrs; format: organism-based; conditions: in vivo, read-out: Activity
[6] = Acute toxicity in BALB/c mouse assessed as mortality at 15 mg/kg, iv measured for 24 hrs; format: organism-based; conditions: in vivo, read-out: Activity
[7] = Acute toxicity in BALB/c mouse assessed as mortality at 50 mg/kg, iv measured for 24 hrs; format: organism-based; conditions: in vivo, read-out: Activity
[8] = Acute toxicity in BALB/c mouse assessed as mortality at 20 mg/kg, iv measured for 24 hrs; format: organism-based; conditions: in vivo, read-out: Activity
Escherichia coli = experiment: Drug resistance, ratio of MIC for Escherichia coli ATCC 25922 after 40 passages to MIC for Escherichia coli ATCC 25922 during first exposure; format: functional
4T1 = experiment: Cytotoxicity against mouse 4T1 cells assessed as survival rate at 100 microg/ml; format: functional; conditions: read-out: Survival
Peritoneal macrophage [9] = experiment: Cytotoxicity against mouse Peritoneal macrophage cells assessed as decrease in cell number at 20 microg/ml; format: functional, cell-based; conditions: dose 20.0 µg/ml
B16-F10 = experiment: Cytotoxicity against mouse B16-F10 cells assessed as survival rate at 100 microg/ml; format: functional; conditions: read-out: Survival

| Compound | viability at 100 µg/mL (HaCaT) [%] | hemolysis at 100 microg/ml [1] [%] | viability at 100 µg/mL (Peritoneal macrophage [2]) [%] | Activity (Peritoneal macrophage [3]) | Activity (Peritoneal macrophage [4]) | Activity (Staphylococcus aureus) | mortality at 24 h [5] [%] | mortality at 24 h [6] [%] | mortality at 24 h [7] [%] | mortality at 24 h [8] [%] | Ratio (Escherichia coli) | viability at 100 µg/mL (4T1) [%] | Activity (Peritoneal macrophage [9]) | viability at 100 µg/mL (B16-F10) [%] |
| --- | --- | --- | --- | --- | --- | --- | --- | --- | --- | --- | --- | --- | --- | --- |
| CC[C@H](C)[C@@H]1NC(=O)[C@H](CCCNC(=N)N)NC(=O)[C@H](CO)NC(=O)[C@H](Cc2c[nH]cn2)NC(=O)[C@H](CCCNC(=N)N)NC(=O)[C@H](CC(C)C)NC(=O)[C@H](C(C)C)NC(=O)[C@H](CCCNC(=N)N)NC(=O)CNC(=O)[C@H](CC(C)C)NC(=O)[C@H](CCC(N)=O)NC(=O)[C@H](CCCCN)NC(=O)[C@H](CCCNC(=N)N)NC(=O)[C@H](C(C)C)NC(=O)[C@H](CCCCN)NC(=O)[C@H](CCCCN)NC(=O)[C@H](Cc2ccccc2)NC(=O)[C@@H](N)CSSC[C@@H](C(=O)O)NC(=O)[C@H](Cc2ccccc2)NC(=O)[C@H](CCCNC(=N)N)NC(=O)[C@H](CCSC)NC(=O)[C@H](CCCNC(=N)N)NC(=O)CNC(=O)CNC(=O)[C@H](C(C)C)NC(=O)[C@H]([C@@H](C)O)NC1=O (H-CFKKVRKQLGRVLRHSRITVGGRMRFC-OH; disulfide 1-27) | > 80 | < 5 | > 80 | Active | Active | inactive |  |  |  |  |  |  |  |  |
| CC[C@H](C)[C@H](NC(=O)[C@H](CCCNC(=N)N)NC(=O)[C@H](CO)NC(=O)[C@H](Cc1c[nH]cn1)NC(=O)[C@H](CCCNC(=N)N)NC(=O)[C@H](CC(C)C)NC(=O)[C@@H](NC(=O)[C@@H]1CSSC[C@H](NC(=O)[C@@H](NC(=O)[C@H](CCCCN)NC(=O)[C@H](CCCCN)NC(=O)[C@@H](N)Cc2ccccc2)C(C)C)C(=O)N[C@@H](CCCNC(=N)N)C(=O)N[C@@H](CCCCN)C(=O)N[C@@H](CCC(N)=O)C(=O)N[C@@H](CC(C)C)C(=O)NCC(=O)N[C@@H](CCCNC(=N)N)C(=O)N1)C(C)C)C(=O)N[C@H](C(=O)N[C@H](C(=O)NCC(=O)NCC(=O)N[C@@H](CCCNC(=N)N)C(=O)N[C@@H](CCSC)C(=O)N[C@@H](CCCNC(=N)N)C(=O)N[C@@H](Cc1ccccc1)C(=O)O)C(C)C)[C@@H](C)O (H-FKKVCRKQLGRCVLRHSRITVGGRMRF-OH; disulfide 5-12) | > 80 | < 5 | > 80 | Active | Active | inactive |  |  |  |  |  |  |  |  |
| CC[C@H](C)[C@H](NC(=O)[C@H](CCCNC(=N)N)NC(=O)[C@H](CO)NC(=O)[C@H](Cc1c[nH]cn1)NC(=O)[C@H](CCCNC(=N)N)NC(=O)[C@H](CC(C)C)NC(=O)[C@@H](NC(=O)[C@H](CCCNC(=N)N)NC(=O)CNC(=O)[C@H](CC(C)C)NC(=O)[C@H](CCC(N)=O)NC(=O)[C@]1(C)CCCC/C=C\CCCC[C@](C)(NC(=O)[C@@H](N)Cc2ccccc2)C(=O)N[C@@H](CCCCN)C(=O)N[C@@H](C(C)C)C(=O)N[C@@H](CCCNC(=N)N)C(=O)N1)C(C)C)C(=O)N[C@H](C(=O)N[C@H](C(=O)NCC(=O)NCC(=O)N[C@@H](CCCNC(=N)N)C(=O)N[C@@H](CCSC)C(=O)N[C@@H](CCCNC(=N)N)C(=O)N[C@@H](Cc1ccccc1)C(=O)O)C(C)C)[C@@H](C)O (H-F[X1]KVR[X1]QLGRVLRHSRITVGGRMRF-OH; staple (Z) 2-6) |  | < 5 |  | Active | Active | inactive |  |  |  |  |  |  |  |  |
| CC[C@H](C)[C@H](NC(=O)[C@H](CCCNC(=N)N)NC(=O)[C@H](CO)NC(=O)[C@H](Cc1c[nH]cn1)NC(=O)[C@H](CCCNC(=N)N)NC(=O)[C@H](CC(C)C)NC(=O)[C@@H](NC(=O)[C@H](CCCNC(=N)N)NC(=O)CNC(=O)[C@]1(C)CCCC/C=C\CCCCCCC[C@@](C)(N)C(=O)N[C@@H](CCCCN)C(=O)N[C@@H](CCCCN)C(=O)N[C@@H](C(C)C)C(=O)N[C@@H](CCCNC(=N)N)C(=O)N[C@@H](CCCCN)C(=O)N[C@@H](CCC(N)=O)C(=O)N1)C(C)C)C(=O)N[C@H](C(=O)N[C@H](C(=O)NCC(=O)NCC(=O)N[C@@H](CCCNC(=N)N)C(=O)N[C@@H](CCSC)C(=O)N[C@@H](CCCNC(=N)N)C(=O)N[C@@H](Cc1ccccc1)C(=O)O)C(C)C)[C@@H](C)O (H-[X2]KKVRKQ[X1]GRVLRHSRITVGGRMRF-OH; staple (Z) 1-8) |  | < 5 |  | Active | Active | inactive |  |  |  |  |  |  |  |  |
| CC(C)CCCCC(=O)N[C@@H](CCN)C(=O)N[C@H](C(=O)N[C@@H](CCN)C(=O)N[C@H]1CCNC(=O)[C@H]([C@@H](C)O)NC(=O)[C@H](CCN)NC(=O)[C@H](CCN)NC(=O)[C@H](CC(C)C)NC(=O)[C@@H](Cc2ccccc2)NC(=O)[C@H](CCN)NC1=O)[C@@H](C)O.CC[C@H](C)CCCCC(=O)N[C@@H](CCN)C(=O)N[C@H](C(=O)N[C@@H](CCN)C(=O)N[C@H]1CCNC(=O)[C@H]([C@@H](C)O)NC(=O)[C@H](CCN)NC(=O)[C@H](CCN)NC(=O)[C@H](CC(C)C)NC(=O)[C@@H](Cc2ccccc2)NC(=O)[C@H](CCN)NC1=O)[C@@H](C)O (X3-[Dab]T[Dab][Dab][Dab][dF]L[Dab][Dab]T; lactam 4-C) |  |  |  |  |  |  | 50 | 100 | 100 | 100 |  |  |  |  |
| C[C@@H](O)[C@H]1C(=O)N2C(C(=O)O)=C(S[C@@H]3CN[C@H](C(=O)N(C)C)C3)[C@H](C)[C@H]12 [MEROPENEM] |  |  |  |  |  |  |  |  |  |  | 64 |  |  |  |
| H-FGRFFKKVRKQLGRVLRHSRITVGGRMRF-OH |  |  |  | Active | Active | inactive |  |  |  |  |  | < 40 | Active |  |
| H-RFFKKVRKQLGRVLRHSRITVGGRMRF-OH |  |  |  | Active | Active | inactive |  |  |  |  |  | < 40 | Active |  |
| H-RRSRFGRFFKKVRKQLG-NH2 | 80 |  | 80 |  |  | inactive |  |  |  |  |  | < 40 |  | < 40 |
| H-RRSRFGRFFKKVRKQLGRV-NH2 | 80 |  | 80 |  |  | inactive |  |  |  |  |  | < 40 |  | < 40 |
| H-RRSRFGRFFKKVRKQLGRVLR-NH2 | 80 |  | 80 | Active | Active | inactive |  |  |  |  |  | < 40 | Active | < 40 |
| H-RRSRFGRFFKKVRKQLGRVLRHS-NH2 | 80 |  | 80 | Active | Active | inactive |  |  |  |  |  | < 40 | Active | < 40 |
| H-RRSRFGRFFKKVRKQLGRVLRHSRI-NH2 | 80 |  | 80 | Active | Active | inactive |  |  |  |  | 1 | < 40 | Active | < 40 |
| H-RRSRFGRFFKKVRKQLGRVLRHSRITV-NH2 | 80 |  | 80 | Active | Active | inactive |  |  |  |  |  | < 40 | Active | < 40 |
| H-RRSRFGRFFKKVRKQLGRVLRHSRITVGG-NH2 | 80 |  | 80 | Active | Active | inactive |  |  |  |  |  | < 40 | Active | < 40 |
| H-RRSRFGRFFKKVRKQLGRVLRHSRITVGGRM-NH2 | 80 |  | 80 | Active | Active | inactive |  |  |  |  |  | < 40 | Active | < 40 |
| H-SRFGRFFKKVRKQLGRVLRHSRITVGGRMRF-OH |  |  |  | Active | Active | inactive |  |  |  |  |  | < 40 | Active |  |

— ChEMBL document CHEMBL6078680, “Improving the Stability and Anti-Infective Activity of Sea Turtle AMPs Using Multiple Structural Modification Strategies” (J Med Chem, 2024)
